{"source": "patent US20250235450A1", "about": "“COMBINATION THERAPIES COMPRISING APREMILAST AND TYK2 INHIBITORS” (Celgene Corporation, priority 2019, published 2025)", "key": {"[1]": {"system": "anti-CD3/anti-CD28 (Th0) or anti-CD3/anti-CD28, IL-1β, IL-6 and IL-23 (Th17) stimulated whole blood", "assay": "Ex-vivo TruCulture tube assay: cytokine production in stimulated whole blood", "format": "cell-based, human", "details": "for inhibition at 1 µM: Homo sapiens", "method": "Whole blood was received through the Celgene Donor program after informed consent and donor deidentification. All volunteers were healthy and were not on any medications for at least 72 hours prior to the blood draw. Blood was collected in sodium heparin tubes. The assay was started within 2 hours of the blood draw.\nAn ex-vivo stimulation of healthy donor human whole blood was performed under two different stimulation conditions. Condition Th0 was a stimulation with TruCulture® tubes containing anti-CD3/anti-CD28. Condition Th17 was a stimulation with TruCulture® tubes containing anti-CD3/anti-CD28 plus IL-1β, IL-6 and IL-23. Whole blood was separated into 15 milliliter conical tubes and pre-treated with DMSO, apremilast alone, BMS-986165 alone or BMS-986165 combined with apremilast. Final concentrations were 0.2% DMSO, 1 μM for apremilast alone, 1 μM, 0.1 μM, 0.01 μM and 0.001 μM BMS-986165 alone and in combination with 1 μM apremilast. Blood was mixed well and then incubated in a 37° C./5% CO2 incubator for 1 hour.\nThe anti-CD3/anti-CD28 (200 ng/ml and 330 ng/ml final concentrations respectively) TruCulture® tubes were thawed on the bench top for 30 minutes and then labeled. Plungers were pressed and then broken off. TruCulture® tubes were placed in a rack standing upright such that the plunger side is pointing down in the rack and the tube-cap is pointing up. While blood was incubating with compound Human recombinant IL-6, IL-1β and IL-23 were added to all Th17 tubes in the following concentrations: 120 ng IL-6, 120 ng IL-1b and 150 ng IL-23. One ml of the pre-treated whole blood was placed in each tube, using sterile pyrogen-free pipette tips. The cap was replaced and the contents of the tube were mixed by inverting 3 times. The tubes were immediately placed in a 37° C. heat block and incubated for 42 hours (tube-cap end). After the 42 hours the tubes were removed from the heat block, tops were unscrewed and 250 μl of the supernatant was removed and transferred into three 96-well polypropylene plates. Samples were immediately frozen at −80° C. The supernatants were then thawed at room temperature and tested neat for cytokine production by Luminex Multi-Plex MagPix technology (Millipore) or IL-22 by ELISA (Abcam). The manufacturer's procedures were followed accordingly.\nData processing for the cytokine analysis was done using Milliplex Analyst (Millipore), and raw data was exported to Excel template for the cytokine analysis. Data from the template was plotted using GraphPad Prism 7.0 (GraphPad Software, Inc., La Jolla, CA) and expressed as pg/ml or % of control. Statistical analysis was also performed using One Way Anova and Dunnett's Post Test.\nTo evaluate the combinatory effect of apremilast and BMS-986165, data from the two independent treatments were analyzed by comparing the combinatory response against the theoretical additive response of the two agents. The expected additive effect of two agents (A and B) was calculated using the fractional product method: (fu)A,B=(fu)A×(fu)B; where fu=fraction unaffected by treatment."}, "LPS stimulated PBMCs": {"system": "LPS stimulated PBMCs", "assay": "Viability of LPS stimulated PBMCs", "format": "cell-based, human", "set-up": "key: ↑: Induced; —: No change; ↓: Reduced"}}, "note": "Read-outs that look alike come from different tables or passages of the source."}
{"smiles": "CCOc1cc([C@@H](CS(C)(=O)=O)N2C(=O)c3cccc(NC(C)=O)c3C2=O)ccc1OC", "note": "[Apremilast, N-[2-[(1S)-1-(3-ethoxy-4-methoxyphenyl)-2-(methylsulfonyl)ethyl]-2,3-dihydro-1,3-dioxo-1H-isoindol-4-yl]acetamide]", "values": [{"measurement": "inhibition at 1 µM", "setting": "[1]; Th0, 1 μM apremilast, read-out: inhibition of IL-17F production", "value": 69, "unit": "%"}, {"measurement": "inhibition at 1 µM", "setting": "[1]; Th0, 1 μM apremilast, read-out: inhibition of TNF-α levels", "value": 90, "unit": "%"}, {"measurement": "inhibition at 1 µM", "setting": "[1]; Th17, 1 μM apremilast, read-out: inhibition of IL-17F production", "value": 49, "unit": "%"}, {"measurement": "inhibition at 1 µM", "setting": "[1]; Th17, 1 μM apremilast, read-out: inhibition of TNF-α levels", "value": 94, "unit": "%"}, {"measurement": "CCL20 % of Control", "setting": "[1]; Th0, 1 μM apremilast", "value": "59.5 % of Control"}, {"measurement": "GM-CSF % of Control", "setting": "[1]; Th0, 1 μM apremilast", "value": "20.3 % of Control"}, {"measurement": "IFN-γ % of Control", "setting": "[1]; Th0, 1 μM apremilast", "value": "9.3 % of Control"}, {"measurement": "IL-1β % of Control", "setting": "[1]; Th0, 1 μM apremilast", "value": "16.4 % of Control"}, {"measurement": "IL-2 % of Control", "setting": "[1]; Th0, 1 μM apremilast", "value": "17.9 % of Control"}, {"measurement": "IL-4 % of Control", "setting": "[1]; Th0, 1 μM apremilast", "value": "30.3 % of Control"}, {"measurement": "IL-5 % of Control", "setting": "[1]; Th0, 1 μM apremilast", "value": "6.2 % of Control"}, {"measurement": "IL-6 % of Control", "setting": "[1]; Th0, 1 μM apremilast", "value": "52.8 % of Control"}, {"measurement": "IL-10 % of Control", "setting": "[1]; Th0, 1 μM apremilast", "value": "41.6 % of Control"}, {"measurement": "IL-13 % of Control", "setting": "[1]; Th0, 1 μM apremilast", "value": "15.3 % of Control"}, {"measurement": "IL-17A % of Control", "setting": "[1]; Th0, 1 μM apremilast", "value": "71.6 % of Control"}, {"measurement": "IL-17F % of Control", "setting": "[1]; Th0, 1 μM apremilast", "value": "31.8 % of Control"}, {"measurement": "IL-21 % of Control", "setting": "[1]; Th0, 1 μM apremilast", "value": "62.9 % of Control"}, {"measurement": "IL-22 % of Control", "setting": "[1]; Th0, 1 μM apremilast", "value": "14.8 % of Control"}, {"measurement": "IL-23 % of Control", "setting": "[1]; Th0, 1 μM apremilast", "value": "82.1 % of Control"}, {"measurement": "TNF-α % of Control", "setting": "[1]; Th0, 1 μM apremilast", "value": "10.7 % of Control"}, {"measurement": "inhibition of IL-17A cytokine expression", "setting": "[1]; Th0, 1 μM apremilast", "value": 28, "unit": "%"}, {"measurement": "inhibition of IL-22 cytokine expression", "setting": "[1]; Th0, 1 μM apremilast", "value": 85, "unit": "%"}, {"measurement": "reduction of GM-CSF cytokine expression", "setting": "[1]; Th0, 1 μM apremilast", "value": 80, "unit": "%"}, {"measurement": "IL-17A levels", "setting": "[1]; Th0, 1 μM apremilast, control 138 pg/mL", "value": 93, "unit": "pg/mL"}, {"measurement": "IL-17F levels", "setting": "[1]; Th0, 1 μM apremilast, control 1085 pg/mL", "value": 368, "unit": "pg/mL"}, {"measurement": "TNF-α levels", "setting": "[1]; Th0, 1 μM apremilast, control 1380 pg/mL", "value": 148, "unit": "pg/mL"}, {"measurement": "effect on GM-CSF, statistical significance", "setting": "[1]; Th0 and Th17, apremilast", "value": "significantly inhibited"}, {"measurement": "CCL20 % of Control", "setting": "[1]; Th17, 1 μM apremilast", "value": "220.3 % of Control"}, {"measurement": "GM-CSF % of Control", "setting": "[1]; Th17, 1 μM apremilast", "value": "33.8 % of Control"}, {"measurement": "IFN-γ % of Control", "setting": "[1]; Th17, 1 μM apremilast", "value": "18.7 % of Control"}, {"measurement": "IL-1β % of Control", "setting": "[1]; Th17, 1 μM apremilast", "value": "98 % of Control"}, {"measurement": "IL-2 % of Control", "setting": "[1]; Th17, 1 μM apremilast", "value": "14.4 % of Control"}, {"measurement": "IL-4 % of Control", "setting": "[1]; Th17, 1 μM apremilast", "value": "36.7 % of Control"}, {"measurement": "IL-5 % of Control", "setting": "[1]; Th17, 1 μM apremilast", "value": "4.8 % of Control"}, {"measurement": "IL-6 % of Control", "setting": "[1]; Th17, 1 μM apremilast", "value": "95.3 % of Control"}, {"measurement": "IL-10 % of Control", "setting": "[1]; Th17, 1 μM apremilast", "value": "32.6 % of Control"}, {"measurement": "IL-13 % of Control", "setting": "[1]; Th17, 1 μM apremilast", "value": "22.1 % of Control"}, {"measurement": "IL-17A % of Control", "setting": "[1]; Th17, 1 μM apremilast", "value": "102.4 % of Control"}, {"measurement": "IL-17F % of Control", "setting": "[1]; Th17, 1 μM apremilast", "value": "59.7 % of Control"}, {"measurement": "IL-21 % of Control", "setting": "[1]; Th17, 1 μM apremilast", "value": "76.2 % of Control"}, {"measurement": "IL-22 % of Control", "setting": "[1]; Th17, 1 μM apremilast", "value": "57.5 % of Control"}, {"measurement": "IL-23 % of Control", "setting": "[1]; Th17, 1 μM apremilast", "value": "94.3 % of Control"}, {"measurement": "TNF-α % of Control", "setting": "[1]; Th17, 1 μM apremilast", "value": "5.8 % of Control"}, {"measurement": "effect on IL-17A cytokine expression", "setting": "[1]; Th17, 1 μM apremilast", "value": "no effect"}, {"measurement": "inhibition of IL-22 cytokine expression", "setting": "[1]; Th17, 1 μM apremilast", "value": 41, "unit": "%"}, {"measurement": "reduction of GM-CSF cytokine expression", "setting": "[1]; Th17, 1 μM apremilast", "value": 66, "unit": "%"}, {"measurement": "TNF-α levels", "setting": "[1]; Th17, 1 μM apremilast, control 1436 pg/mL", "value": 91, "unit": "pg/mL"}, {"measurement": "IL-17F levels", "setting": "[1]; Th17, 1 μM apremilast, control 6524 pg/mL", "value": 3643, "unit": "pg/mL"}, {"measurement": "effect on GM-CSF production", "setting": "[1]; whole blood, Th0 and Th17", "value": "inhibited"}, {"measurement": "effect on TNF-α production", "setting": "[1]; whole blood, Th0 and Th17", "value": "inhibited"}, {"measurement": "Viability", "setting": "LPS stimulated PBMCs", "value": "—"}]}
